Experimental data: ChEMBL document CHEMBL5579805, “Synthesis, antibacterial activity, and 3D-QASR studies of matrine-indole derivatives as potential antibiotics” (2024)
Values after ≈ are worked out from the molar mass of the structure shown.

Experiments:
Assay type in all cases: functional
Staphylococcus aureus = test: Antibacterial activity against Staphylococcus aureus by two-fold dilution method; settings: for MIC: Staphylococcus aureus
Cutibacterium acnes = test: Antibacterial activity against Propionibacterium acnes by two-fold dilution method
Pseudomonas aeruginosa = test: Antibacterial activity against Pseudomonas aeruginosa by two-fold dilution method
Escherichia coli = test: Antibacterial activity against Escherichia coli by two-fold dilution method
Candida albicans = test: […] activity against Candida albicans by two-fold dilution method; settings: for MIC: Candida albicans

Compound | MIC (Staphylococcus aureus) | MIC (Cutibacterium acnes) | MIC (Pseudomonas aeruginosa) | MIC (Escherichia coli) | MIC (Candida albicans) | -logMIC (Staphylococcus aureus) | -logMIC (Candida albicans)
COC(=O)CCC[C@@H]1[C@H]2CCCN3CCC[C@@H](CN1C(=O)c1cc4ccc(Cl)cc4n1Cc1ccccc1C)[C@@H]23 | 0.063 µg/mL (≈ 0.112 µM) | 0.271 µg/mL (≈ 0.482 µM) | 0.72 µg/mL (≈ 1.28 µM) | 1.1 µg/mL (≈ 1.97 µM) | 19.6 µg/mL (≈ 34.8 µM) | 1.201 | -1.29
COC(=O)CCC[C@@H]1[C@H]2CCCN3CCC[C@@H](CN1C(=O)c1cc4ccc(Cl)cc4n1Cc1cccc4ccccc14)[C@@H]23 | 0.303 µg/mL (≈ 0.507 µM) | 0.14 µg/mL (≈ 0.234 µM) | 0.534 µg/mL (≈ 0.893 µM) | 0.649 µg/mL (≈ 1.08 µM) | 12.1 µg/mL (≈ 20.2 µM) | 0.519 | -1.08
COC(=O)CCC[C@@H]1[C@H]2CCCN3CCC[C@@H](CN1C(=O)c1cc4ccc(Cl)cc4n1Cc1ccc(F)c(F)c1)[C@@H]23 | 0.427 µg/mL (≈ 0.731 µM) | 0.12 µg/mL (≈ 0.205 µM) | 0.5 µg/mL (≈ 0.856 µM) | 0.483 µg/mL (≈ 0.827 µM) | 9.55 µg/mL (≈ 16.3 µM) | 0.37 | -0.98
COC(=O)CCC[C@@H]1[C@H]2CCCN3CCC[C@@H](CN1C(=O)c1cc4ccc(Cl)cc4n1Cc1ccc(OC)cc1)[C@@H]23 | 0.354 µg/mL (≈ 0.612 µM) | 0.404 µg/mL (≈ 0.699 µM) | 0.627 µg/mL (≈ 1.08 µM) | 0.775 µg/mL (≈ 1.34 µM) | 8.04 µg/mL (≈ 13.9 µM) | 0.451 | -0.905
COC(=O)CCC[C@@H]1[C@H]2CCCN3CCC[C@@H](CN1C(=O)c1cc4ccc(Cl)cc4[nH]1)[C@@H]23 | 1.61 µg/mL (≈ 3.52 µM) | 0.636 µg/mL (≈ 1.39 µM) | 0.661 µg/mL (≈ 1.44 µM) | 2.55 µg/mL (≈ 5.57 µM) | 6.59 µg/mL (≈ 14.4 µM) | 0.207 | -0.819
C[C@H]1c2cccc(O)c2C(=O)C2=C(O)[C@]3(O)C(=O)C(C(N)=O)=C(O)[C@@H](N(C)C)[C@@H]3[C@@H](O)[C@@H]21.Cl [DOXYCYCLINE HYDROCHLORIDE] | – | 0.023 µg/mL | – | – | – | – | –
O=C1CCC[C@@H]2[C@H]3CCCN4CCC[C@@H](CN12)[C@@H]34 [MATRINE] | 7.43 µg/mL (≈ 29.9 µM) | 16 µg/mL (≈ 64.3 µM) | 6.73 µg/mL (≈ 27.1 µM) | 5.46 µg/mL (≈ 22 µM) | 8 µg/mL (≈ 32.2 µM) | – | –
COC(=O)CCC[C@@H]1[C@H]2CCCN3CCC[C@@H](CN1C(=O)c1cc4ccc(Cl)cc4n1Cc1ccc([N+](=O)[O-])cc1)[C@@H]23 | 0.18 µg/mL (≈ 0.303 µM) | 0.053 µg/mL (≈ 0.0894 µM) | 0.28 µg/mL (≈ 0.472 µM) | 0.523 µg/mL (≈ 0.882 µM) | 7.01 µg/mL (≈ 11.8 µM) | 0.745 | -0.846
CC1(C)S[C@@H]2[C@H](NC(=O)Cc3ccccc3)C(=O)N2[C@H]1C(=O)[O-].[Na+] [PENICILLIN G SODIUM] | 0.037 µg/mL | – | – | – | – | – | –
COC(=O)CCC[C@@H]1[C@H]2CCCN3CCC[C@@H](CN1C(=O)c1cc4ccc(Cl)cc4n1Cc1c(Cl)cccc1Cl)[C@@H]23 | 0.164 µg/mL (≈ 0.266 µM) | 0.203 µg/mL (≈ 0.329 µM) | 0.207 µg/mL (≈ 0.335 µM) | 0.82 µg/mL (≈ 1.33 µM) | 6.81 µg/mL (≈ 11 µM) | 0.785 | -0.833
COC(=O)CCC[C@@H]1[C@H]2CCCN3CCC[C@@H](CN1C(=O)c1cc4ccc(Cl)cc4n1Cc1cccc(C(F)(F)F)c1)[C@@H]23 | 0.136 µg/mL (≈ 0.221 µM) | 0.058 µg/mL (≈ 0.0941 µM) | 0.234 µg/mL (≈ 0.38 µM) | 0.559 µg/mL (≈ 0.907 µM) | 4.52 µg/mL (≈ 7.33 µM) | 0.866 | -0.655

Second part, led by results:

MIC (Staphylococcus aureus) | MIC (Cutibacterium acnes) | MIC (Pseudomonas aeruginosa) | MIC (Escherichia coli) | MIC (Candida albicans) | Compound | -logMIC (Staphylococcus aureus) | -logMIC (Candida albicans)
0.021 µg/mL (≈ 0.0341 µM) | 0.03 µg/mL (≈ 0.0487 µM) | 0.092 µg/mL (≈ 0.149 µM) | 0.379 µg/mL (≈ 0.615 µM) | 2.81 µg/mL (≈ 4.55 µM) | COC(=O)CCC[C@@H]1[C@H]2CCCN3CCC[C@@H](CN1C(=O)c1cc4ccc(Cl)cc4n1Cc1ccc(C(F)(F)F)cc1)[C@@H]23 | 1.678 | -0.448
0.186 µg/mL (≈ 0.319 µM) | 0.246 µg/mL (≈ 0.422 µM) | 0.633 µg/mL (≈ 1.09 µM) | 0.812 µg/mL (≈ 1.39 µM) | 13.5 µg/mL (≈ 23.1 µM) | COC(=O)CCC[C@@H]1[C@H]2CCCN3CCC[C@@H](CN1C(=O)c1cc4ccc(Cl)cc4n1Cc1ccc(Cl)cc1)[C@@H]23 | 0.73 | -1.13
0.065 µg/mL (≈ 0.109 µM) | 0.175 µg/mL (≈ 0.293 µM) | 0.42 µg/mL (≈ 0.702 µM) | 0.892 µg/mL (≈ 1.49 µM) | 12.2 µg/mL (≈ 20.4 µM) | COC(=O)CCC[C@@H]1[C@H]2CCCN3CCC[C@@H](CN1C(=O)c1cc4ccc(Cl)cc4n1Cc1ccc4ccccc4c1)[C@@H]23 | 1.187 | -1.09
9.79 µg/mL (≈ 23.1 µM) | 1.23 µg/mL (≈ 2.91 µM) | 1.08 µg/mL (≈ 2.56 µM) | 2.97 µg/mL (≈ 7.01 µM) | 14.3 µg/mL (≈ 33.7 µM) | COC(=O)CCC[C@@H]1[C@H]2CCCN3CCC[C@@H](CN1C(=O)c1cc4ccccc4[nH]1)[C@@H]23 | -0.991 | -1.16
0.097 µg/mL (≈ 0.162 µM) | 0.084 µg/mL (≈ 0.14 µM) | 0.5 µg/mL (≈ 0.833 µM) | 0.848 µg/mL (≈ 1.41 µM) | 5.48 µg/mL (≈ 9.12 µM) | COC(=O)CCC[C@@H]1[C@H]2CCCN3CCC[C@@H](CN1C(=O)c1cc4ccc(Cl)cc4n1Cc1cc(Cl)ccc1F)[C@@H]23 | 1.013 | -0.739
